Assay results reported in PMC10525132, “Potent Antioxidant and Anti-Tyrosinase Activity of Butein and Homobutein Probed by Molecular Kinetic and Mechanistic Studies” (Antioxidants, 2023).

Experiments:
[1] = Radical equilibration EPR (ReqEPR) for the O-H bond dissociation enthalpy; assay type: physicochemical
Method: Deoxygenated acetonitrile solutions containing the phenols (0.01–0.001 M) and di-tert-butyl peroxide (10% v/v) were sealed under nitrogen in a 2 mm ID suprasil quartz EPR tube. The sample was inserted in the thermostatted (30 °C) cavity of an X-band EPR spectrometer and photolyzed with a mercury–xenon lamp (240–400 nm, max 4500 mW/cm^2). Spectra were recorded with the following settings: modulation amplitude 0.2–1 Gauss, sweep width 30–60 Gauss, modulation frequency 100 kHz, frequency 9.76 GHz, sweep time 60 s, and microwave power 0.1–1 mW. Measured g-factors were corrected with respect to that of TEMPO (g = 2.0064) and of DPPH radical. In ReqEPR experiments, mixtures of TBP and butein were analyzed to obtain the molar ratio of the two equilibrating radicals by comparison of the digitized experimental spectra with computer-simulated ones, as previously described. This afforded the equilibrium constant, Keq. Different irradiation power levels (20% to 100%) and different ratios of the two phenols were tested to guarantee that the two species were at equilibrium.
The reactivity of (phenolic) chain-breaking antioxidants toward formal hydrogen atom transfer (HAT) to a radical such as peroxyl radicals is dictated by the strength of the phenolic O-H bond being broken, i.e., by its bond dissociation enthalpy (BDEOH), and by the steric hindrance in ortho position to the reactive OH [40, 41]. Indeed, there are well-established Evans–Polanyi linear free-energy correlations between the BDEOH and the inhibition rate constant kinh for phenolic antioxidants. One very accurate method to measure the BDEOH is via radical equilibration experiments using electron paramagnetic resonance spectroscopy, the ReqEPR technique. It consists of photolyzing the “unknown” phenol to be studied (^UPhOH) in a mixture with a reference phenol (^RPhOH) in the cavity of the EPR spectrometer with the addition of a peroxide (e.g., di-tert-butylperoxide) as a photochemical initiator. Analysis and deconvolution of the EPR spectrum containing both equilibrating radical species affords the equilibrium constant Keq (see Figure 3), which in turn allows determining the ∆G° of equilibration. Since it has been shown that ∆S° is negligible for such an equilibrium, this affords the BDEOH of ^UPhOH if the value is known for ^RPhOH (Figure 3A).
To convert this value into a gas-phase equivalent, it is necessary to correct for the effect of the solvent, which increases the apparent BDE value by H-bonding to the phenols (see Figure 3B). Such solvent effects can be accounted for quantitatively, as detailed in Figure 3B, by using Abraham’s solvatochromic parameters α2^H and β2^H, describing, respectively, the H-bond donating ability of the phenol and the H-bond accepting ability of the solvent. Considering that the solvent effect is negligible for TBP due to steric hindrance by the t-butyl groups in ortho [40], that α2^H for catechol is 0.73 and β2^H for acetonitrile is 0.39 [42], the DBE measured in acetonitrile must be downscaled by −1.4 kcal/mol to afford BDEOH = 78.4 ± 0.2 kcal/mol for butein in apolar solvent/gas-phase.

[2] = biological target: T1, mushroom tyrosinase (mTYR) (Agaricus bisporus, UniProt C7FF04); details: previous report, cited from earlier work
T1 construct: purchased Sigma-Aldrich (Milan, Italy)

[3] = biological target: T1, mushroom tyrosinase (mTYR); details: cited from earlier work
mTYR = experiment: Stability toward air and mTYR, oxygen consumption; details: 0.1 mM, pH 6.8, 30 °C, axes [O2] M vs Time / s

T1 sequence (C7FF04 1-392): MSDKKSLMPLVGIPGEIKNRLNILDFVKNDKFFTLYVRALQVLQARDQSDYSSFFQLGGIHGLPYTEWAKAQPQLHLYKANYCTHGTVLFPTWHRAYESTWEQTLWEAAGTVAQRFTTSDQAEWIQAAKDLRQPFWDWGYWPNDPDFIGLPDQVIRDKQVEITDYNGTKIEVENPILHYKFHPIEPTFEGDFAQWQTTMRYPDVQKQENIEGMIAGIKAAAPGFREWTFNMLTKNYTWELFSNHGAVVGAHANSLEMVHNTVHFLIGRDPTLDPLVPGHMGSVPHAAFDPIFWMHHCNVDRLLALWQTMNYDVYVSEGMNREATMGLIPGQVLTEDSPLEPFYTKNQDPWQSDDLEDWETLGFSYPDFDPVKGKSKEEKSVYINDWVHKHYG

SMILES | BDEOH ([1]; ReqEPR vs TBP, corrected for solvent to apolar solvent/gas-phase) [kcal/mol] | BDEOH ([1]; ReqEPR vs TBP, corrected for solvent to apolar solvent/gas-phase, listed as butein) [kcal/mol] | BDEOH higher compared to α-TOH ([1]; difference to α-TOH) [kJ/mol] | Keq (radical equilibration with TBP) ([1]; in acetonitrile at 298 K) | BDEOH ([1]; in acetonitrile at 298 K, not corrected for solvent) [kcal/mol] | BDEOH of any OH group in A ring ([1]; suggested from structure) [kJ/mol] | Ki ([2]; monophenolase, competitive) [µM] | inhibition mode, monophenolase [2] | effect toward diphenolase reaction (reported) [3] | diphenolase inhibition (reported effect) ([3]; even at concentrations > 100 µM) | oxygen consumption, zero order regression slope b[1] (mTYR; with tyrosinase 7 U/ml) | oxygen consumption, zero order regression slope b[1] (mTYR; without enzyme) | BDEOH ([1]; estimated from the value for butein by additive contribution of substituents) | BDEOH ([1]; estimated from the value for butein by additive contribution of substituents, listed as HB) [kcal/mol] | BDEOH ([1]; estimated from the value for butein by additive contribution of substituents, listed as homobutein)
O=C(/C=C/c1ccc(O)c(O)c1)c1ccc(O)cc1O [Butein, (E)-1-(2,4-dihydroxyphenyl)-3-(3,4-dihydroxyphenyl)prop-2-en-1-one] | 78.4 ± 0.2 | 78.4 | 5.44 | 1.64 ± 0.63 | 79.8 ± 0.2 | > 360 | 1410 | competitive | ineffective | poorly effective | -2.789e-9 | -1.989e-9 | – | – | –
COc1cc(/C=C/C(=O)c2ccc(O)cc2O)ccc1O [Homobutein, (E)-1-(2,4-dihydroxyphenyl)-3-(4-hydroxy-3-methoxyphenyl)prop-2-en-1-one] | – | – | – | – | – | – | – | – | – | – | -3.664e-9 | -2.859e-9 | 82.6 ^1 kcal/mol | 82.6 | ~ 82.6 kcal/mol
